From patent US10874743B2, “IRAK degraders and uses thereof” (Kymera Therapeutics, Inc., priority 2017, dated 2020)
Values joined by “and” are separate entries in the source; they are usually repeats but may differ in a detail not shown here. Equal entries are not always repeated. Where two headings read alike, the source gives them in different places.

Assay: Pharmacokinetics in Sprague Dawley rats (plasma and brain concentrations, PK parameters)
Format: in vivo
Conditions: for Concentration Rat 4 / Concentration Rat 5 / Concentration Rat 6: po 10 mg/kg
Description: Pharmacokinetics for I-127, I-172 and I-210 were determined in Sprague Dawley rats or CD-1 mice by dosing intravenous (IV), subcutaneous (SC) or per oral (PO) using facility SOPs and sampling plasma at required time points. Species, formulation, route of administration and time points samples are listed below for each compound.
Compounds were extracted from plasma, injected on reverse phase HPLC, eluted with a gradient from 5% to 95% acetonitrile in water and quantified by mass spectrometry with internal standard. Data are expressed in ng compound per mL of plasma.

[1] = Rat (Sprague Dawley) po 10 mg/kg, Mean
[2] = Rat (Sprague Dawley) po 10 mg/kg, individual Rat 4-6, 10 mg/kg
[3] = Sprague Dawley rat, iv 3 mg/kg, Rat 1
[4] = Sprague Dawley rat, iv 3 mg/kg, Rat 2
[5] = Sprague Dawley rat, iv 3 mg/kg, Rat 3
[6] = Sprague Dawley rat, iv 3 mg/kg, mean of 3 rats
[7] = Sprague Dawley rat, plasma, 0 h
[8] = Sprague Dawley rat, plasma, 24 h

brain Detected Conc. (Rat (Sprague Dawley) iv 3 mg/kg (IVB), brain homogenate 1:2 in PBS, 0.083 h, Group 1, Group 2, 3 mg/kg): 11.8 ng/mL
brain Detected Conc. (Rat (Sprague Dawley) iv 3 mg/kg (IVB), brain homogenate 1:2 in PBS, 0.25 h, Group 1, Group 2, 3 mg/kg): 12.9 ng/mL
brain Detected Conc. (Rat (Sprague Dawley) iv 3 mg/kg (IVB), brain homogenate 1:2 in PBS, 1 h, Group 1, Group 2, 3 mg/kg): 17.5 ng/mL
brain Detected Conc. (Rat (Sprague Dawley) iv 3 mg/kg (IVB), brain homogenate 1:2 in PBS, 4 h, Group 1, Group 2, 3 mg/kg): 12.4 ng/mL
brain Actual Conc. (Rat (Sprague Dawley) iv 3 mg/kg (IVB), brain, 0.083 h, Group 1, Group 2, detected value multiplied by 3, 3 mg/kg): 35.4 ng/g
brain Actual Conc. (Rat (Sprague Dawley) iv 3 mg/kg (IVB), brain, 0.25 h, Group 1, Group 2, detected value multiplied by 3, 3 mg/kg): 38.7 ng/g
brain Actual Conc. (Rat (Sprague Dawley) iv 3 mg/kg (IVB), brain, 1 h, Group 1, Group 2, detected value multiplied by 3, 3 mg/kg): 52.5 ng/g
brain Actual Conc. (Rat (Sprague Dawley) iv 3 mg/kg (IVB), brain, 4 h, Group 1, Group 2, detected value multiplied by 3, 3 mg/kg): 37.2 ng/g
AUC_%Extrap_obs [1]: 42.3%
AUClast/D [1]: 1.52 kg·ng·h/mL/mg
F [1]: 0.385%
AUC_%Extrap_obs [2]: 33.5% and 48.7% and 44.8%
Cmax [2]: 3.50 ng/mL and 4.02 ng/mL and 1.20 ng/mL
F [2]: 0.450% and 0.536% and 0.169%
MRTInf_obs [2]: 10.2 h and 9.35 h
T1/2 [2]: 5.65 h and 5.28 h
AUC_%Extrap_obs Rat 1 [3]: 0.140%
AUClast/D Rat 1 [3]: 414 kg·ng·h/mL/mg
Cl_obs Rat 1 [3]: 40.2 mL/min/kg
Vss_obs Rat 1 [3]: 7.85 L/kg
AUC_%Extrap_obs Rat 2 [4]: 0.183%
AUClast/D Rat 2 [4]: 403 kg·ng·h/mL/mg
Cl_obs Rat 2 [4]: 41.2 mL/min/kg
Vss_obs Rat 2 [4]: 7.79 L/kg
AUC_%Extrap_obs Rat 3 [5]: 0.185%
AUClast/D Rat 3 [5]: 364 kg·ng·h/mL/mg
Cl_obs Rat 3 [5]: 45.7 mL/min/kg
Vss_obs Rat 3 [5]: 8.00 L/kg
AUC_%Extrap_obs Mean [6]: 0.169%
AUClast/D Mean [6]: 394 kg·ng·h/mL/mg
Cl obs Mean [6]: 42 mL/min/kg
Vss_obs Mean [6]: 7.88 L/kg
Concentration Rat 1 (Sprague Dawley rat, iv 3 mg/kg, plasma, 0 h, Rat 1): BLOQ
Concentration Rat 2 (Sprague Dawley rat, iv 3 mg/kg, plasma, 0 h, Rat 2): BLOQ
Concentration Rat 3 (Sprague Dawley rat, iv 3 mg/kg, plasma, 0 h, Rat 3): BLOQ
Concentration Rat 4 [7]: BLOQ
Concentration Rat 5 [7]: BLOQ
Concentration Rat 6 [7]: BLOQ
Concentration Rat 4 [8]: BLOQ
Concentration Rat 5 [8]: BLOQ
Concentration Rat 6 [8]: BLOQ
concentration at 0.083 h (Sprague Dawley, rat, brain homogenate, iv, 3 mg/kg, Rat (Sprague Dawley) iv 3 mg/kg (IVB), brain homogenate 1:2 in PBS, 0.083 h, Group 1, Group 2, read-out: brain Detected Conc.): 17.2 ng/mL
concentration at 0.25 h (Sprague Dawley, rat, brain homogenate, iv, 3 mg/kg, Rat (Sprague Dawley) iv 3 mg/kg (IVB), brain homogenate 1:2 in PBS, 0.25 h, Group 1, Group 2, read-out: brain Detected Conc.): 13.2 ng/mL
concentration at 1 h (Sprague Dawley, rat, brain homogenate, iv, 3 mg/kg, Rat (Sprague Dawley) iv 3 mg/kg (IVB), brain homogenate 1:2 in PBS, 1 h, Group 1, Group 2, read-out: brain Detected Conc.): 13.3 ng/mL
concentration at 4 h (Sprague Dawley, rat, brain homogenate, iv, 3 mg/kg, Rat (Sprague Dawley) iv 3 mg/kg (IVB), brain homogenate 1:2 in PBS, 4 h, Group 1, Group 2, read-out: brain Detected Conc.): 14.2 ng/mL
concentration at 0.083 h (Sprague Dawley, rat, brain, iv, 3 mg/kg, Rat (Sprague Dawley) iv 3 mg/kg (IVB), brain, 0.083 h, Group 1, Group 2, detected value multiplied by 3, read-out: brain Actual Conc.): 51.6 ng/g
concentration at 0.083 h (Sprague Dawley, rat, brain, iv, 3 mg/kg, Rat (Sprague Dawley) iv 3 mg/kg (IVB), brain, 0.083 h, Mean, read-out: brain Actual Conc.): 43.5 ng/g
concentration at 0.25 h (Sprague Dawley, rat, brain, iv, 3 mg/kg, Rat (Sprague Dawley) iv 3 mg/kg (IVB), brain, 0.25 h, Group 1, Group 2, detected value multiplied by 3, read-out: brain Actual Conc.): 39.6 ng/g
concentration at 0.25 h (Sprague Dawley, rat, brain, iv, 3 mg/kg, Rat (Sprague Dawley) iv 3 mg/kg (IVB), brain, 0.25 h, Mean, read-out: brain Actual Conc.): 39.2 ng/g
concentration at 1 h (Sprague Dawley, rat, brain, iv, 3 mg/kg, Rat (Sprague Dawley) iv 3 mg/kg (IVB), brain, 1 h, Group 1, Group 2, detected value multiplied by 3, read-out: brain Actual Conc.): 39.9 ng/g
concentration at 1 h (Sprague Dawley, rat, brain, iv, 3 mg/kg, Rat (Sprague Dawley) iv 3 mg/kg (IVB), brain, 1 h, Mean, read-out: brain Actual Conc.): 46.2 ng/g
AUC(0-inf) (Sprague Dawley, rat, plasma, iv, 3 mg/kg, Sprague Dawley rat, iv 3 mg/kg, Rat 1, read-out: AUCInf Rat 1): 1240 ng·h/mL
AUC(0-t) (Sprague Dawley, rat, plasma, iv, 3 mg/kg, Sprague Dawley rat, iv 3 mg/kg, Rat 1, read-out: AUClast Rat 1): 1240 ng·h/mL
C0 (Sprague Dawley, rat, plasma, iv, 3 mg/kg, Sprague Dawley rat, iv 3 mg/kg, Rat 1, read-out: C0 Rat 1): 873 ng/mL
half-life (Sprague Dawley, rat, plasma, iv, 3 mg/kg, Sprague Dawley rat, iv 3 mg/kg, Rat 1, read-out: T1/2 Rat 1 (converted)): 2.66 h
AUC(0-inf) (Sprague Dawley, rat, plasma, iv, 3 mg/kg, Sprague Dawley rat, iv 3 mg/kg, Rat 2, read-out: AUCInf Rat 2): 1210 ng·h/mL
AUC(0-t) (Sprague Dawley, rat, plasma, iv, 3 mg/kg, Sprague Dawley rat, iv 3 mg/kg, Rat 2, read-out: AUClast Rat 2): 1210 ng·h/mL
C0 (Sprague Dawley, rat, plasma, iv, 3 mg/kg, Sprague Dawley rat, iv 3 mg/kg, Rat 2, read-out: C0 Rat 2): 814 ng/mL
half-life (Sprague Dawley, rat, plasma, iv, 3 mg/kg, Sprague Dawley rat, iv 3 mg/kg, Rat 2, read-out: T1/2 Rat 2 (converted)): 2.83 h
AUC(0-inf) (Sprague Dawley, rat, plasma, iv, 3 mg/kg, Sprague Dawley rat, iv 3 mg/kg, Rat 3, read-out: AUCInf Rat 3): 1090 ng·h/mL
AUC(0-t) (Sprague Dawley, rat, plasma, iv, 3 mg/kg, Sprague Dawley rat, iv 3 mg/kg, Rat 3, read-out: AUClast Rat 3): 1090 ng·h/mL
C0 (Sprague Dawley, rat, plasma, iv, 3 mg/kg, Sprague Dawley rat, iv 3 mg/kg, Rat 3, read-out: C0 Rat 3): 855 ng/mL
half-life (Sprague Dawley, rat, plasma, iv, 3 mg/kg, Sprague Dawley rat, iv 3 mg/kg, Rat 3, read-out: T1/2 Rat 3 (converted)): 2.88 h
AUC(0-inf) (Sprague Dawley, rat, plasma, iv, 3 mg/kg, Sprague Dawley rat, iv 3 mg/kg, mean of 3 rats, read-out: AUCInf Mean): 1180 ng·h/mL
AUC(0-t) (Sprague Dawley, rat, plasma, iv, 3 mg/kg, Sprague Dawley rat, iv 3 mg/kg, mean of 3 rats, read-out: AUClast Mean): 1180 ng·h/mL
C0 (Sprague Dawley, rat, plasma, iv, 3 mg/kg, Sprague Dawley rat, iv 3 mg/kg, mean of 3 rats, read-out: C0 Mean): 848 ng/mL
half-life (Sprague Dawley, rat, plasma, iv, 3 mg/kg, Sprague Dawley rat, iv 3 mg/kg, mean of 3 rats, read-out: T1/2 Mean (converted)): 2.79 h
AUC(0-inf) (Sprague Dawley, rat, plasma, po, 10 mg/kg, Rat (Sprague Dawley) po 10 mg/kg, Mean, read-out: AUCInf): 26.6 ng·h/mL
SMILES: O=C1CCC(N2C(=O)c3cccc(NCCOCCOCCNCc4ccc(-n5cc(NC(=O)c6coc(-c7ccnc(NCC8CC8)c7)n6)c(C(F)F)n5)cc4)c3C2=O)C(=O)N1 (stereo not drawn) [I-210, 2-[2-(Cyclopropylmethylamino)-4-pyridyl]-N-[3-(difluoromethyl)-1-[4-[[2-[2-[2-[[2-(2,6-dioxo-3-piperidyl)-1,3-dioxoisoindolin-4-yl]amino]ethoxy]ethoxy]ethylamino]methyl]phenyl]pyrazol-4-yl]oxazole-4-carboxamide]
AUClast [2]: 17.7 ng·h/mL and 21.1 ng·h/mL and 6.66 ng·h/mL
